{"source": "patent US20240409607A1", "about": "“STABILIZED MHC MOLECULES” (Immatics Biotechnologies GmbH, priority 2021, published 2024)", "key": {"HLA-A*02:01_ds 22-71 [1]": {"test_system": "HLA-A*02:01_ds 22-71", "experiment": "TSA with fatty acids in 20 mM HEPES pH 7.0", "format": "binding, human", "conditions": "50 mM fatty acid, 20 mM HEPES pH 7.0, protein 0.1 mg/ml", "experimental": "(§1) After refolding the protein was concentrated by ultrafiltration and purified by size exclusion chromatography. Fatty acids were dissolved in or diluted with water and neutralized with NaOH to give stock solution of 0.5 M pH 7.\nIn order to find optimal storage and handling conditions for peptide free recombinant HLA-A*02:01 preparations, different compounds were screened in a thermal shift assay (TSA). […] The additives indicated in table 3 were added or alternatively water was added as a control. The raw data was exported and the analysis of the melting temperature was performed in Microsoft Excel. Protein stability was monitored over a temperature range from 30° C. to 70° C. […] The temperature at which the maximal increase of fluorescence compared to the previous measurement was observed, is defined as melting point in the respective composition."}, "HLA-A*02:01 ds_84-139": {"test_system": "HLA-A*02:01 ds_84-139", "experiment": "TSA with fatty acid and/or GM loading dipeptide", "format": "binding, human", "conditions": "fatty acid 50 mM final or GM 10 mM final", "experimental": "(§2) In order to find optimal storage and handling conditions for peptide free recombinant HLA-A*02:01 preparations, different compounds were screened in a thermal shift assay (TSA). Measurements were performed in the Applied Biosystems 7500 real time PCR instrument at a protein concentration of 0.1 mg/ml in a buffer of 20 mM Tris pH 8.0, 150 mM NaCl. The additives indicated in table 3 were added or alternatively water was added as a control. The raw data was exported and the analysis of the melting temperature was performed in Microsoft Excel. Protein stability was monitored over a temperature range from 30° C. to 70° C. […] The temperature at which the maximal increase of fluorescence compared to the previous measurement was observed, is defined as melting point in the respective composition.\n(§3) Reference is made to FIGS. 5 to 7."}, "HLA-A*02:01_ds_22-71": {"test_system": "HLA-A*02:01_ds_22-71", "experiment": "TSA with fatty acid and/or GM loading dipeptide", "format": "binding, human", "conditions": "fatty acid 50 mM final or GM 10 mM final", "experimental": "as §2, §3"}, "HLA-A*02:01_ds 22-71 [2]": {"test_system": "HLA-A*02:01_ds 22-71", "conditions": "0.1 mg/ml protein, 20 mM Tris pH 8.0, 150 mM NaCl; for protein stability (melting point) in thermal shift assay: sodium butyrate 50 mM, GM dipeptide 10 mM, water as control", "experimental": "as §1, §2"}, "HLA-A*0201 ds 22-71": {"test_system": "HLA-A*0201 ds 22-71", "experiment": "TSA-screen with 40 different buffer conditions (different pH)", "format": "binding, human", "conditions": "valeric acid 50 mM", "experimental": "In a parallel TSA-screen with 40 different buffer conditions (MES pH between 5.8 to 7.2; BisTris pH between 5.8 to 7.2; MOPS pH between 6.5 to 7.9; HEPES pH 6.8 to 8.2; and Tris pH between 7.6 to 9.0), a clear link between pH conditions and stability of recombinant HLA was detected. In this experiment, a solution of 0.1 mg/ml HLA-A*0201 ds 22-71 in 20 mM HEPES pH 7.0 was supplemented with 0.1 volume of 1 M stock solution of the respective buffer. […] This pH range was also found to be optimal for peptide loaded HLA molecules. In order to test whether HLA is stabilized in different pH conditions by the fatty acids, a TSA-screen with the same 40 different buffer conditions was performed as described above. […] Accordingly, the stabilizing effect of the fatty acid on the HLA molecule was observed under different pH conditions."}}}
{"compound": "CC(C)CCC(=O)O", "note": "[4-methyl-valeric acid, 4-methyl-pentanoic acid]", "values": [{"measurement": "stabilizing effect on the HLA molecule (melting point), branched or unsaturated versus linear saturated fatty acids", "setting": "HLA-A*02:01_ds 22-71 [1]", "value": "showed a stabilizing effect on the HLA molecule"}]}
{"compound": "CSCC[C@H](N)C(=O)O.NCC(=O)O", "note": "[glycine-methionine, reference compound]", "values": [{"measurement": "stabilization of the HLA protein, single additive", "setting": "HLA-A*02:01 ds_84-139", "value": "Stabilization of the HLA proteins was observed"}, {"measurement": "stabilization of the HLA protein, single additive", "setting": "HLA-A*02:01_ds_22-71", "value": "Stabilization of the HLA proteins was observed"}, {"measurement": "protein stability (melting point) in thermal shift assay", "setting": "HLA-A*02:01_ds 22-71 [2]", "value": "marked increase in protein stability"}]}
{"compound": "CCCCCC(=O)O", "note": "[hexanoic acid]", "values": [{"measurement": "stabilization of the HLA protein, single additive", "setting": "HLA-A*02:01 ds_84-139", "value": "Stabilization of the HLA proteins was observed"}, {"measurement": "stabilization of the HLA protein, single additive", "setting": "HLA-A*02:01_ds_22-71", "value": "Stabilization of the HLA proteins was observed"}]}
{"compound": "CCCC(=O)[O-].[Na+]", "note": "[sodium butyrate, Sodium butyrate]", "values": [{"measurement": "stabilization of the HLA protein, single additive", "setting": "HLA-A*02:01 ds_84-139", "value": "Stabilization of the HLA proteins was observed"}, {"measurement": "stabilization of the HLA protein, single additive", "setting": "HLA-A*02:01_ds_22-71", "value": "Stabilization of the HLA proteins was observed"}, {"measurement": "stabilizing effect compared to the dipeptide glycine-methionine", "setting": "HLA-A*02:01_ds 22-71 [2]; sodium butyrate 50 mM vs GM 10 mM", "value": "increased stabilizing effect"}, {"measurement": "protein stability (melting point) in thermal shift assay", "setting": "HLA-A*02:01_ds 22-71 [2]", "value": "marked increase in protein stability"}]}
{"compound": "CCCCC(=O)O", "note": "[valeric acid, Pentanoic acid]", "values": [{"measurement": "stabilization of the HLA protein, single additive", "setting": "HLA-A*02:01 ds_84-139", "value": "Stabilization of the HLA proteins was observed"}, {"measurement": "stabilization of the HLA protein, single additive", "setting": "HLA-A*02:01_ds_22-71", "value": "Stabilization of the HLA proteins was observed"}, {"measurement": "stabilizing effect compared to tests without the fatty acid", "setting": "HLA-A*0201 ds 22-71; 40 buffer conditions, MES, BisTris, MOPS, HEPES, Tris, pH 5.8 to 9.0, 100 mM buffer", "value": "increased in all pH conditions tested"}, {"measurement": "stabilizing effect in the pH range of 6 to 7.2", "setting": "HLA-A*0201 ds 22-71; pH 6 to 7.2", "value": "particularly increased"}]}
